The source of these data is patent US20110046147A1, “17BETA-HYDROXYSTEROID DEHYDROGENASE TYPE 1 INHIBITORS FOR THE TREATMENT OF HORMONE-RELATED DISEASES” (UNIVERSITAT DES SAARLANDES, priority 2007, published 2011).

Structures are written as SMILES.

One data set concerns the target T1, 17β-HSD1 (Homo sapiens, UniProt P14061).
T1 construct: In both cases, human placenta served as the enzyme source; from tissue; host or cells: human placenta
T1 sequence (P14061 1-328): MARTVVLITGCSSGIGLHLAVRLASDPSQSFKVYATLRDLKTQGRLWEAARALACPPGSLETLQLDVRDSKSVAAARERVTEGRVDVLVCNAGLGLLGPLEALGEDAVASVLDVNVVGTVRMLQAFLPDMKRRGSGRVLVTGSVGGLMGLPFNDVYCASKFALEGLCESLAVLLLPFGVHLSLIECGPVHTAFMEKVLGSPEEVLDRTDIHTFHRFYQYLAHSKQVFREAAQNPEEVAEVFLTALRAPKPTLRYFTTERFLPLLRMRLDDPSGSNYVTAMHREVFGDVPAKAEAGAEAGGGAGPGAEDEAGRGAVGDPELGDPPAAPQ
The data set is described as follows: Inhibition of 17β-HSD1 (estrone to estradiol, radio-HPLC). Format: biochemical. To be noted: for IC50: human placenta enzyme, 500 nM estrone, NADH 500 μM; for Selectivity IC50 (17β-HSD2)/IC50 (17β-HSD1): ratio of IC50 values. Here is the method: In the 17β-HSD1 test, NADH is employed as a cosubstrate at a final concentration of 500 μM in order to avoid the product inhibition occurring with NADPH. The enzyme preparation is diluted with test buffer to such an extent that the control conversion is 10 to maximally 20% (about 1:650). As the substrate, estrone in a final concentration of 500 nM is used, of which 3 nM is tritiated. 2,4,6,7-[^3H]estrone is purchased from Perkin-Elmer, Boston. The inhibitor is added as a solution in DMSO (control: pure DMSO without inhibitor; the final concentration of DMSO in the assay is 1% in all cases).
(§1) After the reaction, the substrate and product are extracted by partitioning with ether, separated by chromatography (HPLC) and quantified by means of radiodetection.

The target of another data set is T2, 17β-HSD2 (Homo sapiens, UniProt P37059).
T2 construct: from tissue; host or cells: human placenta, microsome fraction
T2 sequence (P37059 1-387): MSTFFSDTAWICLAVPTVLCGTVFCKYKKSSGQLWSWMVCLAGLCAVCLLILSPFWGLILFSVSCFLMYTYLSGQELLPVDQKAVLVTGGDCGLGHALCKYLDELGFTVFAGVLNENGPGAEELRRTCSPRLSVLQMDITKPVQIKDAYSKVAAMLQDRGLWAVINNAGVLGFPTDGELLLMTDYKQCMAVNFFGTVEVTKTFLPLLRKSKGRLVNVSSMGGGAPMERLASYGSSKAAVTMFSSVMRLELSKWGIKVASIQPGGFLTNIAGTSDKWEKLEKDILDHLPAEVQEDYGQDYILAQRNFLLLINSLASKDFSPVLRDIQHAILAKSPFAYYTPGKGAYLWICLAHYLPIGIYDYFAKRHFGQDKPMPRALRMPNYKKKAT
Kind of data set: Inhibition of 17β-HSD2 (estradiol to estrone, radio-HPLC). The format is biochemical. To be noted: human placenta microsome fraction, 500 nM estradiol, NAD+ 1500 μM. Here is the method:
Determination of the inhibitory activity of the potential inhibitors: Inhibition of 17β-HSD1 and 17β-HSD2: In both cases, human placenta served as the enzyme source (Lin, S.-X. et al., J. Biol. Chem., 267: 16182-16187 (1992)).
In the 17β-HSD2 test, the natural cosubstrate NAD^+ is employed at a final concentration of 1500 μM. The microsome fraction is diluted in test buffer, so that a control conversion of 20 to 30% results (about 1:350). As the substrate, estradiol in a final concentration of 500 nM is used, of which 3 nM is tritiated. 2,4,6,7-[^3H]estradiol is also purchased from Perkin-Elmer, Boston. The inhibitor is added as a solution in DMSO (control: pure DMSO without inhibitor; the final concentration of DMSO in the assay is […]). After the addition of the substrate, incubation is performed at 37° C. for 20 minutes. The reaction is quenched by the addition of HgCl2 (final concentration of HgCl2: 0.166 mM).
as §1

The nature of data set [1]: In vivo pharmacokinetics (rat), peroral cassette dosing. Also on record: species or system Wistar rats. To be noted: 10 mg/kg; for AUC(0-inf): extrapolated to ∞. How it is done: In vivo pharmacokinetics (rat): The compounds 29, 45, 47 and 59 and a reference compound were administered to adult male Wistar rats (n=4) perorally in a cassette dosing method (vehicle: Labrasol/water 1/1). The plasma profiles were established by means of LC-MS/MS.
• Cmax obs highest measured concentration • Cz last analytically quantifiable concentration • tmax obs time to reach the highest measured concentration • tz time to withdrawal of the last sample with analytically quantifiable concentration • t1/2z half life (determined from the slope of the declining portion of the concentration vs. time curve • AUC0-tz area below the concentration vs. time curve up to time tZ • AUC0-∞ area below the concentration vs. time curve, extrapolated to ∞

One may read the IC50 as the midpoint of a concentration-inhibition curve. For orientation: AUC(0-t) means the area under the concentration-time curve up to a stated or last time point. A high value points to high exposure. As usually defined, the AUC(0-inf) is the area under the concentration-time curve extrapolated to infinity.

`Oc1ccc(-c2ccsc2-c2ccc(O)cc2)cc1` [Compound 27, 4,4′-Thiene-2,3-diyldiphenol]: the “inhibition of 17β-HSD1 at a concentration of 1 μM (in words)” value (“inhibition of 17β-HSD1” for short) against 17β-HSD1 is recorded as “do not show any inhibition”.
For the molecule `Oc1ccc(-c2nsc(-c3cccc(O)c3)n2)cc1` [Compound 40, 3-[3-(4-Hydroxyphenyl)-1,2,4-thiadiazole-5-yl]phenol], on 17β-HSD1, the IC50 amounted to 360 nM and the “Selectivity IC50 (17β-HSD2)/IC50 (17β-HSD1)” value (“Selectivity IC50” below) was 6.1. 2200 nM corresponded to half-maximal inhibition against 17β-HSD2 (IC50).
`Oc1cccc(-c2ccc(-c3cccc(O)c3)s2)c1` [Compound 31, 3,3′-Thiene-2,5-diyldiphenol]: the IC50 worked out at 110 nM at 17β-HSD1 and 750 nM at 17β-HSD2. Further, at 17β-HSD1, the “Selectivity IC50” value is reported as 6.8.
For the molecule `Oc1cccc(-c2ccc(-c3ccc(O)c(C(F)(F)F)c3)s2)c1` [Compound 49, 4-[5-(3-Hydroxyphenyl)-2-thienyl]-2-(trifluoromethyl)phenol], the IC50 on 17β-HSD1 is 40 nM. That is a double-digit nanomolar value.
With `Oc1cccc(-c2ccc(-c3ccccc3)s2)c1` [Compound 52, 3-(5-Phenyl-2-thienyl)phenol], the IC50 on 17β-HSD1 turned out to be 340 nM; on 17β-HSD2, 2340 nM. In addition, on 17β-HSD1, the “Selectivity IC50” value worked out at 6.9.
For the molecule `Cc1cc(-c2csc(-c3cccc(O)c3)c2)ccc1O` [Compound 55, 4-[5-(3-Hydroxyphenyl)-3-thienyl]-2-methylphenol], the results for the IC50 at 17β-HSD1 and at 17β-HSD2 were 100 nM and 870 nM, respectively. For the same molecule, on 17β-HSD1, the “Selectivity IC50” value came out at 8.7.
At 17β-HSD1, `COc1ccc(-c2nsc(-c3cccc(O)c3)n2)cc1` [Compound 38, 3-[3-(4-Methoxyphenyl)-1,2,4-thiadiazole-5-yl]phenol] displayed an IC50 of 820 nM.
On to `Oc1ccc(-c2csc(-c3cccc(O)c3)c2)cc1` [Compound 33, 3-[4-(4-Hydroxyphenyl)-2-thienyl]phenol], for which, on 17β-HSD1, 70 nM corresponded to half-maximal inhibition (IC50) and the “Selectivity IC50” value was determined as 18. Moreover, half-maximal inhibition against 17β-HSD2 (IC50) was put at 1270 nM.
Molecule `Oc1cccc(-c2ccc(-c3ccc(F)cc3)s2)c1` [Compound 54, 3-[5-(4-Fluorophenyl)-2-thienyl]phenol] had an IC50 against 17β-HSD1 of 720 nM. That is a sub-micromolar value.
Take `Cc1cc(-c2ccc(-c3cccc(O)c3)s2)ccc1O` [Compound 45, 4-[5-(3-Hydroxyphenyl)-2-thienyl]-2-methylphenol]: on 17β-HSD1, half-maximal inhibition (IC50) was put at 40 nM and the “Selectivity IC50” value was found to be 49. On 17β-HSD2, this molecule had an IC50 of 1970 nM. Moreover, in data set [1], the “t1/2z (half life)” value is recorded as 3.8 h, the “tmax obs (time to reach the highest measured concentration)” value came to 4.0 h and the “tz (time of last sample with quantifiable concentration)” value was 24.0 h. In addition, in data set [1] (plasma), the Cz (last analytically quantifiable concentration) came to 43.4 ng/mL. In addition, in data set [1] (male, Wistar, plasma, po), the AUC(0-t) was 12000 ng·h/mL and the area under the curve AUC(0-inf) is 12300 ng·h/mL.
With `Oc1ccc(-c2cnc(-c3ccc(O)cc3)s2)cc1` [Compound 21, 4,4′-(1,3-Thiazole-2,5-diyl)diphenol], at 17β-HSD1, the “inhibition of 17β-HSD1” value is listed as “do not show any inhibition”.
As to `Oc1ccc(-c2ccc(-c3cccc(O)c3)cc2)cc1` [Compound 44, [1,1′;4′,1″]Terphenyl-4,3″-diol], on 17β-HSD1, the IC50 turned out to be 240 nM and the “Selectivity IC50” value is 19. The molecule further displayed an IC50 at 17β-HSD2 of 4500 nM.
The molecule `Oc1cccc(-c2ccc(-c3cccc(F)c3)s2)c1` [Compound 50, 3-[5-(3-Fluorophenyl)-2-thienyl]phenol] displayed an IC50 on 17β-HSD1 of 530 nM.
As for `Oc1cccc(-c2ccc(-c3cccc(O)c3)nc2)c1` [Compound 57, 3,3′-Pyridine-2,5-diyldiphenol], the concentration for half-maximal inhibition (IC50) worked out at 100 nM against 17β-HSD1 and 3400 nM against 17β-HSD2. Besides, the “Selectivity IC50” value on 17β-HSD1 was 34.
As to `Oc1ccc(-c2ccc(-c3ccc(O)cc3)s2)cc1` [Compound 30, 4,4′-Thiene-2,5-diyldiphenol], the “inhibition of 17β-HSD1” value against 17β-HSD1 was “do not show any inhibition”.
Still for that read-out and setting: next, `Oc1cccc(-c2nnc(-c3cccc(O)c3)o2)c1` [Compound 35, 3,3′-(1,3,4-Oxadiazole-2,5-diyl)diphenol]: “do not show any inhibition”.
Turning to `Oc1cccc(-c2nnc(-c3cccc(O)c3)nn2)c1` [Compound 59, 3,3′-(1,2,4,5-Tetrazine-3,6-diyl)diphenol], on 17β-HSD1, the IC50 stood at 200 nM and the “Selectivity IC50” value is on record as 26. The same molecule came in with an IC50 at 17β-HSD2 of 5100 nM. Besides, the “tz (time of last sample with quantifiable concentration)” value in data set [1] is on record as 10.0 h. Besides, the Cz (last analytically quantifiable concentration) in data set [1] (plasma) is 54 ng/mL. For the same molecule, in data set [1] (male, Wistar, plasma, po), the exposure AUC(0-t) is 1200 ng·h/mL and the AUC(0-inf) was 1200 ng·h/mL. The half-life in data set [1] (male, Wistar, plasma, po, read-out: t1/2z (half life) (converted)) was 1.2 h. For the same molecule, the Tmax in data set [1] (male, Wistar, plasma, po, read-out: tmax obs (time to reach the highest measured concentration)) stood at 3 h.
For the molecule `Oc1ccc(-c2cccc(-c3cccc(O)c3)c2)cc1` [Compound 43, [1,1′;3′,1″]Terphenyl-4,3″-diol], the IC50 against 17β-HSD1 is 1410 nM; against 17β-HSD2, 3100 nM. Besides, the “Selectivity IC50” value on 17β-HSD1 is on record as 2.2.
Consider `Cc1cc(-c2cnc(-c3cccc(O)c3)s2)ccc1O` [Compound 56, 4-[2-(3-Hydroxyphenyl)-1,3-thiazole-5-yl]-2-methylphenol], for which the IC50 came out at 100 nM on 17β-HSD1 and 2020 nM against 17β-HSD2. Further, at 17β-HSD1, the “Selectivity IC50” value is listed as 20.
As to `Oc1cccc(-c2ccc(-c3ccc(O)c(O)c3)s2)c1` [Compound 46, 4-[5-(3-Hydroxyphenyl)-2-thienyl]benzene-1,2-diol], the IC50 at 17β-HSD1 is 800 nM; at 17β-HSD2, 1640 nM. At 17β-HSD1, the “Selectivity IC50” value is reported as 2.1.
`CS(=O)(=O)Nc1cccc(-c2ccc(-c3cccc(O)c3)s2)c1` [Compound 51, N-{3-[5-(3-Hydroxyphenyl)-2-thienyl]phenyl}methanesulfonamide] gave an IC50 at 17β-HSD1 of 520 nM.
For the molecule `Oc1cccc(-c2ccc(-c3cc(F)c(O)c(F)c3)s2)c1` [Compound 48, 2,6-Difluoro-4-[5-(3-hydroxyphenyl)-2-thienyl]phenol], at 17β-HSD1, it took 50 nM to reach half-maximal inhibition (IC50) and the “Selectivity IC50” value amounted to 4.6. At 17β-HSD2, this molecule returned an IC50 of 230 nM.
As for `Oc1cccc(-c2nnc(-c3cccc(O)c3)s2)c1` [Compound 36, 3,3′-(1,3,4-Thiadiazole-2,5-diyl)diphenol], on 17β-HSD1, the IC50 was found to be 510 nM.
As to `Oc1cccc(-c2csc(-c3cccc(O)c3)c2)c1` [Compound 34, 3,3′-Thiene-2,4-diyldiphenol], the IC50 against 17β-HSD1 was 170 nM; on 17β-HSD2, 560 nM. For the same molecule, the “Selectivity IC50” value on 17β-HSD1 is 3.3.
As for `Oc1cccc(-c2cnc(-c3cccc(O)c3)cn2)c1` [Compound 58, 3,3′-Pyrazine-2,5-diyldiphenol], on 17β-HSD1, the IC50 amounted to 1000 nM and the “Selectivity IC50” value stood at 5.5. The IC50 on 17β-HSD2 was determined as 5500 nM.
Consider `Oc1ccc(-c2nsc(-c3ccc(O)cc3)n2)cc1` [Compound 39, 4,4′-(1,2,4-Thiadiazole-3,5-diyl)diphenol], for which, at 17β-HSD1, the “inhibition of 17β-HSD1” value is “do not show any inhibition”.
